How the values were obtained:
Type in all cases: biochemical
IDH1^R132C = target: T1, IDH1^R132C (Homo sapiens, UniProt O75874, R132C); assay: NADPH depletion assay, IDH1 R132C
T1 construct: purchased not specified
Summary of the method: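 IDH1 R132C (2 nM) preincubated 15 min at RT with compound in Tris-HCl pH 7.6/MgCl2 buffer, then 60 min RT with NADPH and 0.14 mM alpha-ketoglutarate. Remaining NADPH read by diaphorase/resazurin fluorescence (Ex544/Em590).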

IDH2^R172K = target: T2, IDH2^R172K (Homo sapiens, UniProt P48735, R172K); assay: NADPH depletion assay, IDH2 R172K
T2 construct: purchased not specified
T2 sequence (P48735 40-452 R172K): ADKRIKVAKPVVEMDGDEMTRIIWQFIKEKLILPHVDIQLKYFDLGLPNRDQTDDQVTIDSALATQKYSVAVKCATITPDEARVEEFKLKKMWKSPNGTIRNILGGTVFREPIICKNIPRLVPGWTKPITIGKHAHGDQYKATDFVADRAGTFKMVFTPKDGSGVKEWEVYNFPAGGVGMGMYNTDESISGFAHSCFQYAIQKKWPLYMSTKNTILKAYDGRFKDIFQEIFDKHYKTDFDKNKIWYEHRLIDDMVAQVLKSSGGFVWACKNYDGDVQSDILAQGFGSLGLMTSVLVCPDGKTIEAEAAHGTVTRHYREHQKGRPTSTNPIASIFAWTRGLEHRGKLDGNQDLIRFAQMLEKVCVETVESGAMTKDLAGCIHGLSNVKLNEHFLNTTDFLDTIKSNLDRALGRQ
Experimental: IDH mutated enzyme activity converting alpha-ketoglutarate to 2-hydroxyglutaric acid is measured using a NADPH depletion assay. In the assay the remaining cofactor is measured at the end of the reaction with the addition of a catalytic excess of diaphorase and resazurin, to generate a fluorescent signal in proportion to the amount of NADPH remaining. IDH1 WT enzyme as well as mutated isoforms IDH1^R132H, IDH1^R132C, and IDH^2R172K enzymes are commercially available proteins (see e.g. Sino Biological, Abcam, Active Motif or Creative BioMart).
IDH1^R132H homodimer enzyme are diluted to 8 nM, in 10 μL of Assay Buffer (150 mM NaCl, 50 mM Tris-HCl pH 7.6, 10 mM MgCl2, 0.001% Triton X-100, 4 mM β-mercaptoethanol); 0.2 uL of test compound, previously serially diluted 1 to 3, >10 experimental points from 1 mM in DMSO, is added and the mixture is incubated for 15 minutes at room temperature. The reaction is started with the addition of 10 μL of Substrate Mix (12 uM NADPH, 3.4 mM alpha-ketoglutarate in Assay Buffer) and the mixture is incubated for 60 minutes at room temperature. The reaction is terminated with the addition of 5 μl of Detection Buffer (100 μg/mL diaphorase, 30 μM resazurin, in IX Assay Buffer), and is incubated for 15 minute before reading on a ViewLux as platereader at Ex544/Em590.
Compounds are assayed for their activity against IDH2^R172K following the same assay as above with the following modifications: IDH2^R172K and alpha-ketoglutarate final concentrations in the Assay Buffer is 16 nM and 0.55 mM, respectively.

[1] = target: T3, IDH1^R132H homodimer enzyme (Homo sapiens, UniProt O75874, R132H); assay: NADPH depletion assay, IDH1 R132H
T3 construct: purchased not specified
T3 sequence (O75874 whole entry R132H): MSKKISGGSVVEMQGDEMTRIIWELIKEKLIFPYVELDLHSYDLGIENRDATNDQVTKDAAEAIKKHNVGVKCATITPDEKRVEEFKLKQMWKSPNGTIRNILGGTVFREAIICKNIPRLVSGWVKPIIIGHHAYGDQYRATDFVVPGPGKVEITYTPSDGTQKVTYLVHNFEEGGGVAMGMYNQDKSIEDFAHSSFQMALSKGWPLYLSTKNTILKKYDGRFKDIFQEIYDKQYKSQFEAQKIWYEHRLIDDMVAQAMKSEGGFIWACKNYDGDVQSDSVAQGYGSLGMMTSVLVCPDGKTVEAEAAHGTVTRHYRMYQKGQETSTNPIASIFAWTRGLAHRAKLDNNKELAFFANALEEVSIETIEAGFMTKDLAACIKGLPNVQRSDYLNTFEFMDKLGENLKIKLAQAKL
Summary of the method: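 IDH1 R132H enzyme (8 nM as diluted) in Tris-HCl pH 7.6 with 10 mM MgCl2, 0.001% Triton X-100 and 4 mM β-mercaptoethanol is preincubated 15 min at RT with compound. Substrate mix (12 uM NADPH, 3.4 mM α-ketoglutarate) is added for 60 min; remaining NAD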

T1 sequence (O75874 whole entry R132C): as the sequence (O75874 whole entry R132H) above, with H132C counted along it

Compound	IC50 (IDH1^R132C)	IC50 (IDH2^R172K)	IC50 [1]
COC(=O)c1ccc([C@H](C)Nc2ncc3ccc(=O)n(CC(C)(C)C)c3n2)cc1 [cpd 11, methyl 4-[(1S)-1-{[8-(2,2-dimethylpropyl)-7-oxo-pyrido[2,3-d]pyrimidin-2-yl]amino}ethyl]benzoate]	181 nM	6100 nM	362 nM
C[C@H](Nc1ncc2ccc(=O)n(Cc3ccc(OC(F)(F)F)cc3)c2n1)c1ccc(Cl)cc1 [cpd 26, 2-{[(1S)-1-(4-chlorophenyl)ethyl]amino}-8-[4-(trifluoromethoxy)benzyl]pyrido[2,3-d]pyrimidin-7(8H)-one]	1260 nM	2200 nM	2360 nM
CC(C)Cn1c(=O)ccc2cnc(N[C@@H](C)c3ccc(Cl)cc3)nc21 [cpd 19, 2-{[(1S)-1-(4-chlorophenyl)ethyl]amino}-8-(2-methylpropyl)pyrido[2,3-d]pyrimidin-7(8H)-one]	203 nM	6680 nM	410 nM
CC(Nc1ncc2ccc(=O)n(Cc3ccccc3F)c2n1)c1ccc(CN2CCC(F)(F)CC2)cc1 (stereo not drawn) [cpd 97, 2-[(1-{4-[(4,4-difluoropiperidin-1-yl)methyl]phenyl}ethyl)amino]-8-(2-fluorobenzyl)pyrido[2,3-d]pyrimidin-7(8H)-one]	323 nM	5030 nM	524 nM
C[C@H](Nc1ncc2ccc(=O)n(Cc3ccc(F)c(F)c3)c2n1)c1ccc(Cl)cc1 [cpd 23, 2-{[(1S)-1-(4-chlorophenyl)ethyl]amino}-8-(3,4-difluorobenzyl)pyrido[2,3-d]pyrimidin-7(8H)-one]	891 nM	3490 nM	2090 nM
C[C@H](Nc1ncc2ccc(=O)n(CC3CC3)c2n1)c1ccc(Cl)cc1 [cpd 20, 2-{[(1S)-1-(4-chlorophenyl)ethyl]amino}-8-(cyclopropylmethyl)pyrido[2,3-d]pyrimidin-7(8H)-one]	332 nM	5020 nM	740 nM
C=CC(=O)N1CCC(NC(=O)c2ccc([C@H](C)Nc3ncc4ccc(=O)n(C(C)C)c4n3)cc2F)CC1 [cpd 192, N-(1-acryloylpiperidin-4-yl)-2-fluoro-4-[(1S)-1-{[7-oxo-8-(propan-2-yl)-7,8-dihydropyrido[2,3-d]pyrimidin-2-yl]amino}ethyl]benzamide]	252 nM	645 nM	227 nM
C[C@H](Nc1ncc2ccc(=O)n(Cc3cccc(O)c3)c2n1)c1ccc(Cl)cc1 [cpd 71, 2-{[(1S)-1-(4-chlorophenyl)ethyl]amino}-8-(3-hydroxybenzyl)pyrido[2,3-d]pyrimidin-7(8H)-one]	964 nM	4830 nM	2480 nM
C[C@H](Nc1ncc2ccc(=O)n(CC(F)(F)F)c2n1)c1ccc(CN2CCC(F)(F)CC2)cc1 [cpd 106, 2-{[(1S)-1-{4-[(4,4-difluoropiperidin-1-yl)methyl]phenyl)ethyl]amino)-8-(2,2,2-trifluoroethyl)pyrido[2,3-d]pyrimidin-7(8H)-one]	667 nM	2910 nM	1230 nM
CCn1c(=O)ccc2cnc(N[C@@H](C)C3CCCCC3)nc21 [cpd 12, 2-{[(1S)-1-cyclohexylethyl]amino}-8-ethylpyrido[2,3-d]pyrimidin-7(8H)-one]	1780 nM	5020 nM	3480 nM
CC(Nc1ncc2ccc(=O)n(Cc3c(F)cccc3F)c2n1)c1ccc(CN2CCC(F)(F)CC2)cc1 (stereo not drawn) [cpd 98, 8-(2,6-difluorobenzyl)-2-[(1-{4-[(4,4-difluoropiperidin-1-yl)methyl]phenyl}ethyl)amino]pyrido[2,3-d]pyrimidin-7(8H)-one]	217 nM	5340 nM	366 nM
C[C@H](Nc1ncc2ccc(=O)n(Cc3cccc(C(F)(F)F)c3)c2n1)c1ccc(Cl)cc1 [cpd 24, 2-{[(1S)-1-(4-chlorophenyl)ethyl]amino}-8-[3-(trifluoromethyl)benzyl]pyrido[2,3-d]pyrimidin-7(8H)-one]	1720 nM	2960 nM	3530 nM

Compounds with a lower IC50 (IDH1^R132C), results first:

IC50 (IDH1^R132C)	IC50 (IDH2^R172K)	IC50 [1]	Compound
85 nM	5660 nM	157 nM	CC(C)[C@H](C)n1c(=O)ccc2cnc(N[C@@H](C)c3ccc(-c4ccccc4C#N)cc3)nc21 [cpd 165, 4′-[(1S)-1-({8-[(2S)-3-methylbutan-2-yl]-7-oxo-7,8-dihydropyrido[2,3-d]pyrimidin-2-yl}amino)ethyl]biphenyl-2-carbonitrile]
56 nM	3590 nM	179 nM	CC(C)[C@H](C)n1c(=O)ccc2cnc(N[C@@H](C)c3cc4cc(Cl)ccc4[nH]c3=O)nc21 [cpd 172, 2-{[(1S)-1-(6-chloro-2-oxo-1,2-dihydroquinolin-3-yl)ethyl]amino}-8-[(2S)-3-methylbutan-2-yl]pyrido[2,3-d]pyrimidin-7(8H)-one]
48 nM	3330 nM	85 nM	CC[C@@H](C)n1c(=O)ccc2cnc(N[C@@H](C)c3ccc(CN4CCCC(F)(F)C4)cc3)nc21 [cpd 149, 8-[(2R)-butan-2-yl]-2-{[(1S)-1-{4-[(3,3-difluoropiperidin-1-yl)methyl]phenyl}ethyl]amino}pyrido[2,3-d]pyrimidin-7(8H)-one]
38 nM	5020 nM	71 nM	CCC(C)n1c(=O)ccc2cnc(N[C@@H](C)c3ccc(CN4CCCC(F)(F)C4)cc3)nc21 (stereo partly drawn) [cpd 61, 8-(butan-2-yl)-2-{[(1S)-1-{4-[(3,3-difluoropiperidin-1-yl)methyl]phenyl}ethyl]amino}pyrido[2,3-d]pyrimidin-7(8H)-one]
16 nM	1420 nM	59 nM	CC(C)[C@H](C)n1c(=O)ccc2cnc(N[C@@H](C)c3ccc(OC4CCN(C(=O)OCc5ccccc5)CC4)cc3)nc21 [cpd 146, 4-(4-{(S)-1-[8-((S)-1,2-Dimethyl-propyl)-7-oxo-7,8-dihydro-pyrido[2,3-d]pyrimidin-2-ylamino]-ethyl}-phenoxy)-piperidine-1-carboxylic acid benzyl ester]
63 nM	2350 nM	123 nM	C=CC(=O)N1CCN(c2ccc([C@H](C)Nc3ncc4ccc(=O)n([C@@H](C)C(C)C)c4n3)cc2F)CC1 [cpd 179, 2-({(1S)-1-[4-(4-acryloylpiperazin-1-yl)-3-fluorophenyl]ethyl}amino)-8-[(2S)-3-methylbutan-2-yl]pyrido[2,3-d]pyrimidin-7(8H)-one]
65 nM	5620 nM	158 nM	C[C@H](Nc1ncc2ccc(=O)n(CC(C)(C)C)c2n1)c1ccc(CN2CCC(F)(F)CC2)cc1F [cpd 152, 2-{[(1S)-1-{4-[(4,4-difluoropiperidin-1-yl)methyl]-2-fluorophenyl}ethyl]amino}-8-(2,2-dimethylpropyl)pyrido [2,3-d]pyrimidin-7(8H)-one]
147 nM	2200 nM	323 nM	C[C@H](Nc1ncc2ccc(=O)n(Cc3c(F)cccc3F)c2n1)c1ccc(Cl)cc1 [cpd 31, 2-{[(1S)-1-(4-chlorophenyl)ethyl]amino}-8-(2,6-difluorobenzyl)pyrido[2,3-d]pyrimidin-7(8H)-one]
23 nM	2560 nM	30 nM	CC(C)[C@H](C)n1c(=O)ccc2cnc(N[C@@H](C)c3ccc(C4=CCN(C(=O)OC(C)(C)C)CC4)cc3)nc21 [cpd 167, tert-butyl 4-{4-[(1S)-1-({8-[(2S)-3-methylbutan-2-yl]-7-oxo-7,8-dihydropyrido[2,3-d]pyrimidin-2-yl}amino)ethyl]phenyl}-3,6-dihydropyridine-1(2H)-carboxylate]
48 nM	5110 nM	128 nM	C[C@H](Nc1cc2c(ccc(=O)n2CC(C)(C)C)cn1)c1ccc(CN2CCCC(F)(F)C2)cc1 [cpd 235, 7-{(S)-1-[4-(3,3-Difluoro-piperidin-1-ylmethyl)-phenyl]-ethylamino}-1-(2,2-dimethyl-propyl)-1H-[1,6]naphthyridin-2-one]

— patent publication US12018023B2 (NERVIANO MEDICAL SCIENCES S.R.L., priority 2018, dated 2024)
